Experimental data published in ChEMBL document CHEMBL6127124, “Structure-Activity Relationships and Discovery of (S)-5-(tert-Butyl)-11-(difluoromethoxy)-9-methoxy-2-oxo-1,2,5,6-tetrahydropyrido[2',1':2,3]imidazo[4,5-h]quinoline-3-carboxylic Acid (AB-161), a Novel Orally Available and Liver-Centric HBV RNA Destabilizer” (J Med Chem, 2024).
Converted amounts (≈) assume the structure as drawn.

Legend:
[1] = Kinetic solubility of compound in aqueous buffer at pH 4 at 200 uM incubated for 24 hrs by UPLC UV analysis; type: physicochemical; details: read-out: Kinetic_solubility
[2] = Ratio of drug concentration in liver to plasma of CD-1 mouse at 10 mg/kg, po measured for 24 hrs by LC-MS/MS analysis; type: ADME, organism-based; details: liver and plasma
[3] = Plasma protein binding in human assessed as unbound fraction at 2 uM incubated for 6 hrs by equilibrium dialysis; type: ADME, cell-free
Hepatitis B virus [4] = assay: Antiviral activity against HBV infected in human HepG2.2.15 cells assessed as reduction in HBsAg level incubated for 6 days with media and compound replenishment on third day by CLIA; type: functional, organism-based; details: HepG2.2.15, 144 h; for EC90: time 6 day
[5] = Metabolic stability in CD-1 mouse liver microsomes assessed as clearance at 0.3 uM preincubated for 5 mins followed by NADPH addition measured upto 60 mins by LC-MS/MS analysis; type: ADME, Microsome; details: time < 65 min, read-out: CLH
[6] = Plasma protein binding in dog assessed as unbound fraction at 2 uM incubated for 6 hrs by equilibrium dialysis; type: ADME, cell-free, Canis lupus familiaris
[7] = Metabolic stability in human liver microsomes assessed as clearance at 0.3 uM preincubated for 5 mins followed by NADPH addition measured upto 60 mins by LC-MS/MS analysis; type: ADME, Microsome; details: time < 65 min, read-out: CLH
Hepatitis B virus [8] = assay: Antiviral activity against HBV infected in human HepG2.2.15 cells assessed as reduction in HBsAg level incubated for 6 days with media and compound replenishment on third day in presence of 40 percent mouse serum by CLIA; type: functional, organism-based; details: HepG2.2.15, 144 h
[9] = Cytotoxicity in human HepG2.2.15 cells by Cell Titer-Glo assay; type: toxicity, cell-based, HepG2 2.2.15
[10] = Drug concentration in Beagle dog lung at 10 mg/kg, po measured for 12 hrs by LC-MS/MS analysis; type: ADME, organism-based, Canis lupus familiaris; details: read-out: Ct
[11] = Drug concentration in CD-1 mouse plasma at 10 mg/kg, po measured for 24 hrs by LC-MS/MS analysis; type: ADME, organism-based; details: read-out: Ct
Hepatitis B virus [12] = assay: Antiviral activity against HBV genotype D in immuno-competent C57BL/6 mouse model of chronic HBV assessed as log10 reduction in serum HBsAg production at 10 mg/kg, po qd for 14 days measured 24 hrs post-last dose by EIA relative to control; type: functional; details: time 15 day
[13] = AUC (0 to 24 hrs) in CD-1 mouse at 10 mg/kg, po measured for 24 hrs by LC-MS/MS analysis; type: ADME, organism-based; details: in vivo
[14] = Ratio of total drug concentration in liver to plasma in CD-1 mouse at 10 mg/kg, po measured for 24 hrs by LC-MS/MS analysis; type: ADME, organism-based; details: CD-1, mouse, liver and plasma
[15] = Permeability across basal to apical side in human Caco-2 cells at 5 uM incubated for 120 mins by LC-MS/MS analysis; type: ADME, cell-based; details: read-out: permeability
[16] = Drug concentration in CD-1 mouse liver at 10 mg/kg, po measured for 24 hrs by LC-MS/MS analysis; type: ADME, organism-based; details: read-out: Ct
[17] = Drug concentration in Beagle dog kidney at 10 mg/kg, po measured for 12 hrs by LC-MS/MS analysis; type: ADME, organism-based, Canis lupus familiaris; details: read-out: Ct
[18] = Selectivity ratio of drug concentration in liver in CD-1 mouse at 10 mg/kg, po measured for 24 hrs to EC90 for antiviral activity against HBV infected in human HepG2.2.15 cells assessed as reduction in HBsAg level; type: ADME, organism-based; details: in vivo
[19] = Ratio of drug concentration in lung to plasma of Beagle dog at 10 mg/kg, po measured for 12 hrs by LC-MS/MS analysis; type: ADME, organism-based, Canis lupus familiaris; details: lung (relative to plasma)
[20] = Drug concentration in Beagle dog plasma at 10 mg/kg, po measured for 12 hrs by LC-MS/MS analysis; type: ADME, organism-based, Canis lupus familiaris; details: read-out: Ct
[21] = Plasma protein binding in mouse assessed as unbound fraction at 2 uM incubated for 6 hrs by equilibrium dialysis; type: ADME, cell-free
[22] = Metabolic stability in cynomolgous monkey liver microsomes assessed as clearance at 0.3 uM preincubated for 5 mins followed by NADPH addition measured upto 60 mins by LC-MS/MS analysis; type: ADME, Macaca fascicularis, Microsome; details: cynomolgus monkey, read-out: CLH
[23] = Selectivity ratio of drug concentration in liver in CD-1 mouse at 10 mg/kg, po measured for 12 hrs to EC90 for antiviral activity against HBV infected in human HepG2.2.15 cells assessed as reduction in HBsAg level; type: ADME, organism-based; details: in vivo
[24] = Ratio of drug concentration in kidney to plasma of Beagle dog at 10 mg/kg, po measured for 12 hrs by LC-MS/MS analysis; type: ADME, organism-based, Canis lupus familiaris; details: kidney (relative to plasma)
Hepatitis B virus [25] = assay: Antiviral activity against HBV genotype D in immuno-competent C57BL/6 mouse model of chronic HBV assessed as log10 reduction in serum HBsAg production at 1 mg/kg, po qd for 14 days measured 24 hrs post-last dose by EIA relative to control; type: functional; details: time 15 day
[26] = Plasma protein binding in monkey assessed as unbound fraction at 2 uM incubated for 6 hrs by equilibrium dialysis; type: ADME, cell-free, Macaca mulatta; details: rhesus monkey
[27] = Plasma protein binding in rat assessed as unbound fraction at 2 uM incubated for 6 hrs by equilibrium dialysis; type: ADME, cell-free
[28] = Ratio of drug concentration in liver to plasma of Beagle dog at 10 mg/kg, po measured for 12 hrs by LC-MS/MS analysis; type: ADME, organism-based, Canis lupus familiaris; details: liver (relative to plasma)
Cytochrome P450 2B6 = molecular target: T1, Cytochrome P450 2B6 (Homo sapiens, UniProt P20813); assay: Inhibition of CYP2B6 in human liver microsomes using bupropion as substrate preincubated for 30 min followed by NADPH addition measured after 12 mins by LC-MS/MS analysis; type: ADME, Microsome
T1 sequence (P20813 whole entry): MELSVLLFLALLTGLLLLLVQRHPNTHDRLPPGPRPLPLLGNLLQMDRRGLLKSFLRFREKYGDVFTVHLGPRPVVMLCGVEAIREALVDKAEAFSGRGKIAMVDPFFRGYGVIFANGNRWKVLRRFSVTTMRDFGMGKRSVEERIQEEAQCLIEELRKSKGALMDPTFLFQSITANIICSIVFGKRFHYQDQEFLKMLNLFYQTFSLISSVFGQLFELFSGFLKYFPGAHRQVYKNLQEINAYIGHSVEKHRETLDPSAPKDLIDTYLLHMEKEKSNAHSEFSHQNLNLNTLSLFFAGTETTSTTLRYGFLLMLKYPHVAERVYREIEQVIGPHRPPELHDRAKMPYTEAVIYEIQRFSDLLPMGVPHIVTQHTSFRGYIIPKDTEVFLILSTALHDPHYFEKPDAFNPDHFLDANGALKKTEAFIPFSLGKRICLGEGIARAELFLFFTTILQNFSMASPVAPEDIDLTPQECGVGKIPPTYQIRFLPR

[29] = Permeability across apical to basal side in human Caco-2 cells at 5 uM incubated for 120 mins by LC-MS/MS analysis; type: ADME, cell-based; details: read-out: permeability
[30] = Ratio of total drug concentration in liver to plasma in CD-1 mouse at 10 mg/kg, po measured for 12 hrs by LC-MS/MS analysis; type: ADME, organism-based; details: liver and plasma
[31] = Kinetic solubility of compound in aqueous buffer at pH 7.4 at 200 uM incubated for 24 hrs by UPLC UV analysis; type: physicochemical; details: read-out: Kinetic_solubility

SMILES	solubility kinetic at 24 h, 200 µM [1] [µM]	Kp at 24 h [2]	fraction unbound at 6 h, 2 µM [3]	EC50 (Hepatitis B virus [4]) [nM]	EC90 (Hepatitis B virus [4]) [nM]	microsomal CLint at 0.3 µM [5] [µL/min/mg]	fraction unbound at 6 h, 2 µM [6]	microsomal CLint at 0.3 µM [7] [µL/min/mg]	EC50 (Hepatitis B virus [8]) [nM]	CC50 [9] [nM]	concentration at 12 h [10] [ng/g]	concentration at 24 h [11] [ng/g]	log(activity) (Hepatitis B virus [12])	AUC(0-t) at 24 h [13] [ng·h/mL]	Kp at 24 h [14]	Papp B→A at 2 h, 5 µM [15] [×10⁻⁶ cm/s]	concentration at 24 h [16] [ng/g]	concentration at 12 h [17] [ng/g]	Ratio [18]	Kp at 12 h [19]	also measured
COCCCOc1cc2c(nc1OC)-c1cc(=O)c(C(=O)O)cn1[C@H](C(C)C)C2	190 (≈ 76.5 µg/mL)	3	0.55	1.3	13	3	0.38	2	7.8	> 50000	63	29	1	4770	3	43.8	87	129	4	1.3	concentration at 12 h [20]: 48.3 ng/g; fraction unbound at 6 h, 2 µM [21]: 0.66; microsomal CLint at 0.3 µM [22]: 5 µL/min/mg; Ratio [23]: 191; Kp at 12 h [24]: 2.7; log(activity) (Hepatitis B virus [25]): 0.81; fraction unbound at 6 h, 2 µM [26]: 0.58; fraction unbound at 6 h, 2 µM [27]: 0.46; Kp at 12 h [28]: 2.9; IC50 (Cytochrome P450 2B6): 21000 nM; Papp A→B at 2 h, 5 µM [29]: 11.5 ×10⁻⁶ cm/s; Kp at 12 h [30]: 6; solubility kinetic at 24 h, 200 µM [31]: 175 µM (≈ 70.4 µg/mL)
COc1cc(OC(F)F)c2nc3c(n2c1)C[C@@H](C(C)(C)C)c1cc(C(=O)O)c(=O)[nH]c1-3	43 (≈ 18.6 µg/mL)	184	0.05	2.2	28	7	0.05	4	40	> 50000	135	56.8	0.71	18900	184	54.5	10400	1180	662	0.5	concentration at 12 h [20]: 272 ng/g; fraction unbound at 6 h, 2 µM [21]: 0.02; microsomal CLint at 0.3 µM [22]: 2 µL/min/mg; Ratio [23]: 1675; Kp at 12 h [24]: 4.3; log(activity) (Hepatitis B virus [25]): 0.34; fraction unbound at 6 h, 2 µM [26]: 0.02; fraction unbound at 6 h, 2 µM [27]: 0.06; Kp at 12 h [28]: 11; IC50 (Cytochrome P450 2B6): > 25000 nM; Papp A→B at 2 h, 5 µM [29]: 4.4 ×10⁻⁶ cm/s; Kp at 12 h [30]: 109; solubility kinetic at 24 h, 200 µM [31]: 183 µM (≈ 79.3 µg/mL)
CC(C)(C)[C@@H]1Cc2c(nc3c(C(F)(F)F)cc(C4CC4)cn23)-c2[nH]c(=O)c(C(=O)O)cc21	39 (≈ 17.4 µg/mL)	67	0.05	0.6	6.1	1	0.02	1	6.8	48000	73	85.6	1.07	20500	67	65.6	5740	347	2089	0.7	concentration at 12 h [20]: 110 ng/g; fraction unbound at 6 h, 2 µM [21]: 0.01; microsomal CLint at 0.3 µM [22]: 4 µL/min/mg; Ratio [23]: 12480; Kp at 12 h [24]: 3.2; log(activity) (Hepatitis B virus [25]): 0.47; fraction unbound at 6 h, 2 µM [26]: 0.02; fraction unbound at 6 h, 2 µM [27]: 0.02; Kp at 12 h [28]: 2.5; IC50 (Cytochrome P450 2B6): > 25000 nM; Papp A→B at 2 h, 5 µM [29]: 26.6 ×10⁻⁶ cm/s; Kp at 12 h [30]: 56; solubility kinetic at 24 h, 200 µM [31]: 154 µM (≈ 68.6 µg/mL)
